pIC50: −log10 of the molar value.
Columns and labels:
OCI-Ly10 cells [1] = experiment: Cell proliferation suppression test of single agents, OCI-Ly10 (Alamar Blue, 96 h); assay type: cell-based, Human; details: Homo sapiens, OCI-Ly10, single agent, read-out: Inhibitory Activity on cell proliferation IC50 OCI-Ly10
Procedure: Human lymphoma cell line OCI-Ly10 cells (obtained from University Health Network) were cultured in a 5% CO2 incubator using IMDM medium (Iscove's Modified Dulbecco's Medium, Thermo Fisher Scientific Inc.) containing 20% fetal bovine serum (GE Healthcare) and 1% penicillin streptomycin (NACALAI TESQUE, INC.).
(§1) The OCI-Ly10 or U2932 cells (20000 cells/well) were seeded into 96-well plates (cell plates), to which the test compound diluted with the medium was added at final concentrations of 0.009 nM to 30000 nM (a final DMSO concentration of 0.3%), and after 96 hours of culture, an Alamar Blue reagent (Thermo Fisher Scientific Inc.) was added. After 3 hours, the fluorescence of excitation wavelength 560 nm/fluorescence wavelength 590 nm was measured and IC50 values of inhibitory activity were determined by setting a compound-free and cell-free well as 100% and a compound-free and cell-containing well as 0%.

U2932 cells [2] = experiment: Cell proliferation suppression test of single agents, U2932 (Alamar Blue, 96 h); assay type: cell-based, Human; details: Homo sapiens, U2932, single agent, read-out: Inhibitory Activity on cell proliferation IC50 U2932
Procedure: Human lymphoma cell line U2932 cells (obtained from DSMZ) were cultured in a 5% CO2 incubator using RPMI medium (Roswell Park Memorial Institute medium, Thermo Fisher Scientific Inc.) containing 10% fetal bovine serum (GE Healthcare) and 1% penicillin streptomycin (NACALAI TESQUE, INC.).
as §1

[3] = system: BTK-C481S-mutant OCI-Ly10 cells; experiment: Cell proliferation suppression test of single agents, BTK-C481S-mutant OCI-Ly10; assay type: cell-based, Human; details: Homo sapiens, OCI-Ly10; single agent; read-out: Inhibitory activity on cell proliferation OCI-Ly10 BTK-C481S IC50
Procedure: as §1
(§2) BTK-C481S-mutant OCI-Ly10 cells were produced by point mutation knock-in using the CRISPR-Cas9 system. Cas9 protein (Thermo Fisher Scientific Inc.), guide RNA prepared with GeneArt™ Precision gRNA Synthesis Kit (Thermo Fisher Scientific Inc.), and a single-stranded synthetic oligonucleotide to replace 481st cysteine residue of BTK with a serine residue were introduced into OCI-Ly10 cells by an electroporation method. The resulting modified OCI-Ly10 cells were cultured in the presence of ibrutinib, and the grown cells were used as BTK-C481S-mutant OCI-Ly10 cells. Transduction of the mutation was confirmed by genomic DNA and mRNA sequence analysis.
In the same manner as in Test Example 1, IC50 values for each inhibitor single agent were determined.

OCI-Ly10 cells [4] = experiment: Dose-response study of BTK inhibitor in the presence of BCL-2 inhibitor, OCI-Ly10; assay type: cell-based; details: Homo sapiens, read-out: Inhibitory activity on cell proliferation OCI-Ly10 IC50
Procedure: as §1
(§3) Changes in IC50 values of the BTK inhibitor in the presence of the BCL-2 inhibitor at various concentrations were examined.

U2932 cells [5] = experiment: Dose-response study of BTK inhibitor in the presence of BCL-2 inhibitor, U2932; assay type: cell-based; details: Homo sapiens, read-out: Inhibitory activity on cell proliferation U2932 IC50
Procedure: as §1, §3
From the result obtained for the BCL-2 inhibitor used as a single agent, BCL-2 inhibitor concentrations for three doses were selected for each cancer cell line.

[6] = system: BTK-C481S-mutant OCI-Ly10 cells; experiment: Dose-response study of BTK inhibitor in the presence of BCL-2 inhibitor, BTK-C481S-mutant OCI-Ly10; assay type: cell-based; details: Homo sapiens, read-out: Inhibitory activity on cell proliferation OCI-Ly10 BTK-C481S IC50
Procedure: as §2
BTK-C481S-mutant lymphoma cells were used to examine changes in IC50 values of the BTK inhibitor in the presence of various concentrations of BCL-2 inhibitor.
From the results obtained for the BCL-2 inhibitor used as a single agent, BCL-2 inhibitor concentrations for three doses were selected for BTK-C481-mutant OCI-Ly10 cells.

[7] = system: BTK-C481S-mutant OCI-Ly10 cells; experiment: Combined effect by BLISS score, BTK-C481S-mutant OCI-Ly10; assay type: cell-based, Human; details: combination with venetoclax, positive = synergistic
Procedure: After 96 hours of culture, an Alamar Blue reagent was added, and 3 hours later, fluorescence of excitation wavelength 560 nm/fluorescence wavelength 590 nm was measured. Cell proliferation inhibition rate and viability (100−inhibition rate %) were determined by setting a compound-free and cell-free well as 100% and a compound-free and cell-containing well as 0%.
as §2
The BLISS score was calculated in the same manner as in Example 1.

[8] = OCI-Ly10, in the presence of S-55746 10 nM
[9] = OCI-Ly10, in the presence of S-55746 30 nM
[10] = OCI-Ly10, in the presence of S-55746 100 nM
[11] = OCI-Ly10, in the presence of navitoclax 10 nM
[12] = OCI-Ly10, in the presence of navitoclax 30 nM
[13] = OCI-Ly10, in the presence of navitoclax 100 nM
[14] = OCI-Ly10, in the presence of obatoclax mesylate 50 nM
[15] = OCI-Ly10, in the presence of obatoclax mesylate 100 nM
[16] = OCI-Ly10, in the presence of obatoclax mesylate 200 nM
[17] = OCI-Ly10, in the presence of venetoclax 1 nM
[18] = OCI-Ly10, in the presence of venetoclax 3 nM
[19] = OCI-Ly10, in the presence of venetoclax 10 nM
[20] = OCI-Ly10, obatoclax mesylate 0 nM

Nc1nc(-c2cccc(-n3ccc4cc(C5CC5)cc(F)c4c3=O)c2CO)c2cc(C3=CCN(C4COC4)CC3)[nH]c2n1 [Compound (I-A), 2-(3-{2-amino-6-[1-(oxetan-3-yl)-1,2,3,6-tetrahydropyridin-4-yl]-7H-pyrrolo[2,3-d]pyrimidin-4-yl}-2-(hydroxymethyl)phenyl)-6-cyclopropyl-8-fluoroisoquinolin-1(2H)-one]
pIC50 (OCI-Ly10 cells [1]): 8.70
pIC50 (U2932 cells [2]): 4.90
pIC50 [3]: 7.82
pIC50 (OCI-Ly10 cells [4]; OCI-Ly10, S-55746 0 nM): 8.68
pIC50 (OCI-Ly10 cells [4]; [8]): 8.89
pIC50 (OCI-Ly10 cells [4]; [9]): 8.96
pIC50 (OCI-Ly10 cells [4]; [10]): 9.22
pIC50 (OCI-Ly10 cells [4]; [11]): 8.85
pIC50 (OCI-Ly10 cells [4]; [12]): 8.96
pIC50 (OCI-Ly10 cells [4]; [13]): 9.10
pIC50 (OCI-Ly10 cells [4]; [14]): 9.05
pIC50 (OCI-Ly10 cells [4]; [15]): 9.05
pIC50 (OCI-Ly10 cells [4]; [16]): 9.05
pIC50 (OCI-Ly10 cells [4]; [17]): 8.82
pIC50 (OCI-Ly10 cells [4]; [18]): 8.82
pIC50 (OCI-Ly10 cells [4]; [19]): 8.89
pIC50 (OCI-Ly10 cells [4]; [20]): 8.92
pIC50 (OCI-Ly10 cells [4]; OCI-Ly10, venetoclax 0 nM): 8.68
pIC50 (U2932 cells [5]; U2932, S-55746 0 nM): < 4.52
pIC50 (U2932 cells [5]; U2932, in the presence of S-55746 100 nM): 5.46
pIC50 (U2932 cells [5]; U2932, in the presence of S-55746 300 nM): 6.32
pIC50 (U2932 cells [5]; U2932, in the presence of S-55746 1000 nM): 7.66
pIC50 (U2932 cells [5]; U2932, in the presence of navitoclax 30 nM): 4.92
pIC50 (U2932 cells [5]; U2932, in the presence of navitoclax 100 nM): 5.71
pIC50 (U2932 cells [5]; U2932, in the presence of navitoclax 300 nM): 7.64
pIC50 (U2932 cells [5]; U2932, in the presence of obatoclax mesylate 50 nM): 4.71
pIC50 (U2932 cells [5]; U2932, in the presence of obatoclax mesylate 100 nM): 4.87
pIC50 (U2932 cells [5]; U2932, in the presence of venetoclax 3 nM): 5.32
pIC50 (U2932 cells [5]; U2932, in the presence of venetoclax 10 nM): 5.96
pIC50 (U2932 cells [5]; U2932, in the presence of venetoclax 100 nM): 7.85
pIC50 (U2932 cells [5]; U2932, navitoclax 0 nM): 4.55
pIC50 (U2932 cells [5]; U2932, obatoclax mesylate 0 nM): 4.59
pIC50 (U2932 cells [5]; U2932, venetoclax 0 nM): 4.87
pIC50 ([6]; OCI-Ly10, S-55746 0 nM): 7.96
pIC50 [6, 8]: 8.10
pIC50 [6, 9]: 8.28
pIC50 [6, 10]: 8.51
pIC50 [6, 11]: 7.92
pIC50 [6, 12]: 8.09
pIC50 [6, 13]: 8.39
pIC50 [6, 14]: 8.27
pIC50 [6, 15]: 8.36
pIC50 [6, 16]: 8.40
pIC50 [6, 17]: 8.00
pIC50 [6, 18]: 8.16
pIC50 [6, 19]: 8.32
pIC50 ([6]; OCI-Ly10, navitoclax 0 nM): 7.82
pIC50 [6, 20]: 7.80
pIC50 ([6]; OCI-Ly10, venetoclax 0 nM): 7.82
BLISS score [7]: positive values
